Values of other authors as cited in PMC11387175, “Model informed dose regimen optimizing in development of leritrelvir for the treatment of mild or moderate COVID-19” (Frontiers in Pharmacology, 2024).
Where two headings read alike, the source gives them in different places.

Test system: Delta variant
Parameters: method as in Chen et al., 2023
Settings: ref Chen et al., 2023, cited from earlier work

For `O=C(NC1CCCC1)C(=O)[C@H](C[C@@H]1CCNC1=O)NC(=O)[C@@H]1[C@H]2CCC[C@H]2CN1C(=O)[C@@H](NC(=O)C(F)(F)F)C1CCCCC1` [leritrelvir], the inhibition rate (300 mg/kg) is given as 42.86%, the inhibition rate (600 mg/kg) is given as 100% and the lung pathology is given as “favorable enhancements”. For the same compound, the “viral titers in the lungs of mice after infection” value was “significantly reduced”.
